Data published in patent US7244763B2, “Compounds that modulate PPAR activity and methods of preparation” (Warner Lambert Company LLC, priority 2003, dated 2007).
pEC50, pIC50: −log10 of the molar value. Blank lines part the entries; values can stand above or below the compound they belong to.

Assays:
hPPARβ = target: T1, hPPARβ (Homo sapiens, UniProt Q03181); test: Test A transient transfection assay, HepG2 cells, Gal4-PPAR chimeric receptor luciferase reporter (Hep G2-hBeta); assay type: cell-based; conditions: HepG2 cells transfected with hPPARβ chimeric receptor, 24 hours, read-out: EC50β (Hep G2-hBeta EC50)
T1 construct: expression plasmids encoding hPPARα, hPPARβ or mPPARγ chimeric receptors
T1 sequence (Q03181 171-441 limits assumed): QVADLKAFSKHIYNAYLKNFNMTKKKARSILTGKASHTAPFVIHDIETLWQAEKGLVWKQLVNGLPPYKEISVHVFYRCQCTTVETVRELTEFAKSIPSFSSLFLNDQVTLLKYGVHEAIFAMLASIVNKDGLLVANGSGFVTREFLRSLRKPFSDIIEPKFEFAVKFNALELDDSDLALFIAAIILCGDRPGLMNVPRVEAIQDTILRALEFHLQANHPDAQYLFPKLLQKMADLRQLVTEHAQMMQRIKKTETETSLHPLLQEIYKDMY
Description: (§1) 1. Test A. Transient Transfections Assay Using the HepG2 Hepatoma Cell Line.
(§2) HepG2 cells were transiently transfected with an expression plasmids encoding hPPARα, hPPARβ or mPPARγ chimeric receptors and a reporter containing the yeast upstream activating sequence (UAS) upstream of the viral E1B promoter controlling a luciferase reporter gene. In addition, the plasmid pRSVβ-gal was used to control for transfection efficiency. HepG2 cells were grown in DMEM supplemented with 10% FBS and 1 μM non-essential amino acid. On the first day, cells were split into 100 mm dishes at 2.5×10^6/dish and incubated overnight at 37C.°/5% CO2. On the second day the cells were transiently transfected with plasmid DNA encoding a chimeric receptor, the luciferase reporter gene; and β-gal. For each 100 mm dish, 15 μg of luciferase reporter (PG5E1b) DNA, 15 μg of Gal4-PPAR chimeric receptor DNA, and 1.5 μg of β-gal plasmid DNA were mixed with 1.4 ml of opti-MEM in the tube. 281 μl of LipoFectamine-2000 reagent was added to 1.4 ml of opti-MEM in the tube, and incubate for 5 min at RT. The diluted Lipofectamine-2000 reagent was combined with the DNA mixture, and incubate for 20 min at RT. After fresh medium was added to each 100 mm dish of cells, 2.8 ml of Lipofectamine2000-DNA mixture was added dropwise to the 100 mm dish containing 14 ml of medium, and incubate 37° C. overnight. […]

hPPARα = target: T2, hPPARα (Homo sapiens, UniProt Q07869); test: Test A transient transfection assay, HepG2 cells, Gal4-PPAR chimeric receptor luciferase reporter (Hep G2-hAlpha); assay type: cell-based; conditions: HepG2 cells transfected with hPPARα chimeric receptor, 24 hours, read-out: EC50α (Hep G2-hAlpha EC50)
T2 construct: expression plasmids encoding hPPARα, hPPARβ or mPPARγ chimeric receptors
T2 sequence (Q07869 200-468 limits assumed): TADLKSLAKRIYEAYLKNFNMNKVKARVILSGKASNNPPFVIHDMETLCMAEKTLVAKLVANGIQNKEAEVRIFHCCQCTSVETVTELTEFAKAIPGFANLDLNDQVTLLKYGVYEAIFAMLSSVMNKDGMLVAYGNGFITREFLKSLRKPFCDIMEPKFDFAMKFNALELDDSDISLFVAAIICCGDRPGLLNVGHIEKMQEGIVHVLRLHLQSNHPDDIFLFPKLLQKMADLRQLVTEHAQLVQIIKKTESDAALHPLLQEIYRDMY
Description: as §1, §2

human PPARβ LBD = target: T3, human PPARβ LBD (Homo sapiens, UniProt Q03181); test: Test B radioligand competition binding assay (SPA), PPARβ LBD-GST fusion protein; conditions: concentration that inhibits 50% of interaction between PPARβ LBD and tritiated ligand
T3 construct: made in house; host or cells: E. coli BL21(DE3)pLysS
T3 sequence (Q03181 211-439 limits assumed): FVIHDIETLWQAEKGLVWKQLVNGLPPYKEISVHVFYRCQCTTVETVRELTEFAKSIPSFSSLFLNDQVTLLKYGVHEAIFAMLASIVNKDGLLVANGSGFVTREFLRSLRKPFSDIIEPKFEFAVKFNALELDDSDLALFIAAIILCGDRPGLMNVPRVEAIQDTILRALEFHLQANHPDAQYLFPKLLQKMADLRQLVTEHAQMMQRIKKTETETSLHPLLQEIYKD
Text: 2. Test B. Radioligand Binding Assay
The ability of a compound to interact with PPARβ can be determined using a competition-based receptor binding assay that employs a radiolabeled PPARβ ligand together with a fragment of the PPARβ receptor containing the ligand binding domain (LBD) fused to the protein glutathione-S-transferase (GST). • [1] Preparation of PPARβ LBD-GST fusion protein. The ligand binding domain of the human PPARβ LBD-GST fusion protein can be expressed in E. coli and purified as outlined below. DNA encoding the LBD of human PPARβ is amplified via PCR and inserted in-frame into the bacterial expression vector pGEX-2t PPARβ LBD-GST fusion proteins are expressed in BL21(DE3)pLysS cells. After a 1–2 hr incubation with up to 1 mM IPTG, the cells are lysed by freeze-thaw in buffer containing 50 mM Tris (pH=8), 250 mM KCl, 10 mM DTT, 1 mM PMSF, and 1% triton X-100. After room temperature DNAse and RNAse treatment for 15 min and centrifugation for 1 hr at 50,000×g, 1.5 ml of a glutathione-Sepharose 4B slurry in PBS is added to the resulting supernatant and the mixture is incubated at room temperature for 30 min. […] After incubation with shaking at room temperature for 30 minutes, radioactivity bound to the PPARβ LBD-GST fusion protein/anti-GST/SPA antibody-binding bead complex is assessed using a Wallac MicroBeta plate reader. […]

PPARαLBD = target: T4, PPARαLBD (Homo sapiens, UniProt Q07869); test: Test B radioligand competition binding assay, similar procedure with PPARα LBD; conditions: competition binding to PPARα LBD
T4 construct: GST (inferred from 'similar procedure')
T4 sequence (Q07869 239-466 limits assumed): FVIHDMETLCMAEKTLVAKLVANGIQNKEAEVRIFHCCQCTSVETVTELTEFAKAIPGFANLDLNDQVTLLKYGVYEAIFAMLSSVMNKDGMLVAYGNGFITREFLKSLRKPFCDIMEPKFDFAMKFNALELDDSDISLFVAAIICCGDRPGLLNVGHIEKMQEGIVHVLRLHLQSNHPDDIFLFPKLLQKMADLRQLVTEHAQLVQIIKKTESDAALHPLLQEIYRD

- melting point: 157 to 158 °C
SMILES: Cc1cc2c(CC(=O)O)csc2cc1OCc1ccccc1OCc1ccc(C(F)(F)F)cc1 [Compound 78, {5-Methyl-6-[2-(4-trifluoromethyl-benzyloxy)-benzyloxy]-benzo[b]-thiophen-3-yl}-acetic acid]

- pEC50 (hPPARβ): 5.18
SMILES: O=C(O)CC1CCc2cc(SCc3ccc(-c4ccc(C(F)(F)F)cn4)cc3)ccc2O1 (centres unmarked) [Compound 10, {6-[4-(5-Trifluoromethyl-pyridin-2-yl)-benzylsulfanyl]-chroman-2-yl}-acetic acid]

- pEC50 (hPPARα): 5.71
SMILES: O=C(O)C1(c2ccc(SCc3ccc(-c4ccc(C(F)(F)F)cc4)cc3)cc2)CC1 [Compound 36, 1-[4-(4′-Trifluoromethyl-biphenyl-4-ylmethylsulfanyl)-phenyl]-cyclopropanecarboxylic acid]

- melting point: 193 to 194 °C
SMILES: O=C(O)Cc1coc2cc(OCc3cc(-c4ccc(Cl)cc4)on3)ccc12 [Compound 24, {6-[5-(4-Chloro-phenyl)-isoxazol-3-ylmethoxy]-benzofuran-3-yl}-acetic acid]

- melting point: 229 to 230 °C (dec.)
SMILES: O=C(O)Cc1csc2c(OCc3cc(-c4ccc(Cl)cc4)on3)cccc12 [Compound 77, {7-[5-(4-Chloro-phenyl)-isoxazol-3-ylmethoxy]-benzo[b]thiophen-3-yl}-acetic acid]

- melting point: 169 to 170 °C
SMILES: O=C(O)COc1ccc(SCc2ccc(OC3CCc4cc(Cl)ccc43)cc2)c2c1CCC2 (centres unmarked) [Compound 23, {7-[4-(5-Chloro-indan-1-yloxy)-benzylsulfanyl]-indan-4-yloxy}-acetic acid]

- melting point: 161 to 163 °C
SMILES: O=C(O)Cc1coc2cc(OCc3ccc(OCc4ccc(C(F)(F)F)cc4)cc3)ccc12 [Compound 25, {6-[4-(4-Trifluoromethyl-benzyloxy)-benzyloxy]-benzofuran-3-yl}-acetic acid]

- pIC50 (human PPARβ LBD): 6.35
- pEC50 (hPPARβ): 6.52
SMILES: COc1cc(C(C)(C)C(=O)O)ccc1SCc1ccc(-c2ccc(C(F)(F)F)cn2)cc1 [Compound 21, 2-{3-Methoxy-4-[4-(5-trifluoromethyl-pyridin-2-yl)-benzylsulfanyl]-phenyl}-2-methyl-propionic acid]

- pIC50 (PPARαLBD): 5.45
SMILES: Cc1cc(SCCCc2ccc3ccccc3c2)ccc1OCC(=O)O [Compound 27, [2-Methyl-4-(3-naphthalen-2-yl-propylsulfanyl)-phenoxy]-acetic acid]

- pIC50 (human PPARβ LBD): 8.17
SMILES: Cc1cc(SCCCCOc2ccc(Cl)cc2Cl)ccc1OCC(=O)O [Compound 31, {4-[4-(2,4-Dichloro-phenoxy)-butylsulfanyl]-2-methyl-phenoxy}-acetic acid]
